Entries after “also recorded” stand apart in the source; their conditions may differ. Where two headings read alike, the source gives them in different places.
How the values were obtained:
[1] = tested on: SPbeta AimR bound to its operator; assay type: biochemical, Bacillus subtilis SPbeta phage
Source text: (§1) Gels were stained with RedSafe (Intron Biotechnology).

[2] = tested on: SPbeta AimR bound to putative SPbeta operators; assay type: biochemical, Bacillus subtilis SPbeta phage; conditions: pH 7.5
Source text: as §1

SPbeta AimR [3] = biological target: T1, SPbeta AimR (Bacillus phage SPbeta, UniProt O64094); assay: SEC-MALS, effect of AimP on AimR oligomeric state; assay type: biochemical, Bacillus subtilis SPbeta phage; conditions: 1 mM peptide in injected sample, 1 μM in running buffer; protein 5 mg/mL; 25 mM Tris pH 8, 250 mM NaCl
T1 construct: expresses the full-length AimR (residues 1-386) with an N-terminal 6xHistag; 6xHis tag followed by TEV protease site (N, cleaved yes); made in house; host or cells: E. coli BL21 (DE3) RIL
Protocol: SEC-MALS experiments were performed using an AKTA pure system (GE Heralthcare) coupled to a Wyatt DAWN HELEOS-II MALS instrument and a Wyatt Optilab rEX differential refractometer (Wyatt). 50 μL of the protein samples were injected at a concentration of 5 mg/mL on a Superdex 200 HR 10/300 (GE Heralthcare) column equilibrated in 25 mM Tris pH 8, 250 mM NaCl. When the effect of the peptide in the oligomeric state was tested, 1 mM peptide was added to the injected sample and the running buffer was supplemented with peptide at a final concentration of 1 μM. The Astra 7.1.2 software from the manufacturer was used for acquisition and analysis of the data.

[4] = tested on: SPbeta AimR and operators presenting spacers from 12 bp to 35 bp; conditions: pH 7.5
Protocol: AimR binding to its operator and the inhibition induced by the arbitrium peptides were analyzed by native polyacrylamide and agarose gel electrophoresis. […] Double strand DNA primer probes were purchased from Macrogen (Table S1 and Figure 3A). Purified PCR product or purchased probes (0.4μM) and AimR (4μM) protein were mixed in EMSA buffer (50 mM HEPES pH 7.5, 5 mM MgCl2, 75 mM NaCl and 0.5 mM EDTA). The samples were incubated for 10 min at room temperature. 8% polyacrylamide gels were electrophoresed in Tris-Borate-EDTA (TBE) buffer at 100V for one hour, followed by loading of the samples. Electrophoresis was then performed in TBE buffer at 4°C for about 150 min at 100V. Agarose gels (0.8%–1.2%) were run in TAE buffer at room temperature for about 100 min at 80V. Gels were stained with RedSafe (Intron Biotechnology).

[5] = tested on: AimR N202A bound to the AimR operator; assay: EMSA, AimP-induced DNA dissociation of mutant AimR N202A; assay type: biochemical, Bacillus subtilis SPbeta phage; conditions: AimR 4 μM, probe 0.4 μM, HEPES pH 7.5, 10 min at room temperature
Source text: as §1

SPbeta AimR [6] = biological target: T1, SPbeta AimR; assay type: binding, Bacillus subtilis SPbeta phage; conditions: WT SPbeta AimR, 20 μM protein, 20 mM Tris pH 8, 250 mM NaCl
Protocol: (§2) The thermal shift assay was conducted in a 7500 Fast Real time PCR System (Applied Biosystems). Samples of 20 μL containing 5 × Sypro Orange (Sigma-Aldrich) and 20 μM of protein in a 20 mM Tris pH 8 and 250 mM NaCl buffer were loaded in 96-well PCR plates. To calculate the apparent Kd peptide concentrations from 0 to 2 μM were added to the mixture. Samples were heated from 20 to 85°C in steps of one degree. Fluorescent intensity was plotted versus temperature and integrated with GraphPad Prism software using a Boltzmann model to calculate melting temperatures.

SPbeta AimR D360A = assay: Thermal shift assay, mutant AimR D360A; assay type: binding, Bacillus subtilis SPbeta phage; conditions: residual stabilization versus WT
Protocol: as §2

SPbeta AimR N202A = assay: Thermal shift assay, mutant AimR N202A; assay type: binding, Bacillus subtilis SPbeta phage; conditions: residual stabilization versus WT
Protocol: as §2

T1 sequence (O64094 whole entry, the tested form may be a part): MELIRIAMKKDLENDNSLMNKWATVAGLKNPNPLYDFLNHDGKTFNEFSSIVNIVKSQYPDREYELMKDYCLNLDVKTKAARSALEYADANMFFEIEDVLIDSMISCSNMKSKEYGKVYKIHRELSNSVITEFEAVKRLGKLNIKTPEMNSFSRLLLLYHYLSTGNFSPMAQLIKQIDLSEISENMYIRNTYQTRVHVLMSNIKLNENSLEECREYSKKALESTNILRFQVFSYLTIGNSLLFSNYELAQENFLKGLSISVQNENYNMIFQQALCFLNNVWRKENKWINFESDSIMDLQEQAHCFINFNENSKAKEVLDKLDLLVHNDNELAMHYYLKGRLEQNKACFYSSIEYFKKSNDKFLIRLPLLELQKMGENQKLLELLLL

| Substance | effect of peptide on AimR-DNA binding ([1]; pH 7.5) | DNA release from putative SPbeta operators [2] | effect of AimP on AimR dimer (SPbeta AimR [3]) | DNA binding of AimR-AimP complex [4] | effect of AimP on DNA dissociation of AimR^N202A [5] | increment in the Tm (in words) (SPbeta AimR [6]) | melting temperature (Tm) of AimR in presence of peptide (SPbeta AimR [6]; 5 × Sypro Orange, 20 to 85°C in steps of one degree, one of three independent experiments) [°C] | stabilization induced by AimP, AimR D360A (SPbeta AimR D360A) [°] | stabilization induced by AimP, AimR N202A (SPbeta AimR N202A) [°] | effect of peptide on AimR-DNA binding ([1]; SPbeta AimR 4 μM, DNA probe 0.4 μM, 50 mM HEPES pH 7.5, 5 mM MgCl2, 75 mM NaCl, 0.5 mM EDTA, 10 min at room temperature) |
| --- | --- | --- | --- | --- | --- | --- | --- | --- | --- | --- |
| GMPRGA [regulatory arbitrium AimP peptide for SPbeta AimR, hexapeptide, 95% purity, ProteoGenix] | induced the release of AimR from DNA; also recorded: specifically disrupts the SPbeta AimR binding to its operator | induces DNA release | did not induce SPbeta AimR dimer dissociation | unable to bind DNA | did not induce DNA dissociation | strong stabilization of SPbeta AimR | 58.4 | 1 | 1 | – |
| SAIRGA [AimP peptide specific for phi3T phage, negative control for SPbeta AimR, reference compound] | – | – | – | – | – | No increment in the Tm | – | – | – | had no effect |
